In PubChem BioAssay (NCI) one finds TGI data, which are given here for seven compounds.

Some test systems named below: RXF 393 renal; M14 melanoma; KM12 colon; MOLT-4 leukemia; SF-268 CNS; RPMI-8226 leukemia; K-562 leukemia; DU-145 prostate; HOP-62 NSCLC; SK-MEL-5 melanoma; HCT-15 colon; SK-MEL-28 melanoma; SF-295 CNS; A498 renal; NCI/ADR-RES ovarian; HCT-116 colon; SK-MEL-2 melanoma; SNB-75 CNS; CAKI-1 renal; CCRF-CEM leukemia.
Holding throughout (experiment): inhibition of tumour cell growth, NCI panel, 48 h

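Where inhibition never reached the appropriate level, the endpoint shown equals the highest concentration tested. Otherwise, values were interpolated linearly from a five-concentration, 48-hour dose response in 96-well plates. The concentration for full growth arrest is given as TGI.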

Consider `CCOC(=O)c1cnc(N(C)C)nc1SC(=N)N`, for which the TGI in the experiment on RXF 393 renal, in the experiment on M14 melanoma, in the experiment on KM12 colon, in the experiment on MOLT-4 leukemia, with SF-268 CNS and in the experiment on RPMI-8226 leukemia was greater than 100 µM throughout. The TGI in the experiment with K-562 leukemia, in the experiment on DU-145 prostate, in the experiment with HOP-62 NSCLC, in the experiment on SK-MEL-5 melanoma, with HCT-15 colon and with SK-MEL-28 melanoma was greater than 100 µM throughout. The TGI in the experiment on SF-295 CNS, in the experiment with A498 renal, in the experiment with NCI/ADR-RES ovarian, in the experiment with HCT-116 colon, with SK-MEL-2 melanoma and in the experiment on SNB-75 CNS was greater than 100 µM in each case. This compound displayed a TGI in the experiment on CAKI-1 renal greater than 100 µM.

For the compound `C[n+]1cccc(NC(=O)c2ccc(NC(=O)C34CCC(C(=O)Nc5ccc(C(=O)Nc6ccc[n+](C)c6)cc5)(CC3)CC4)cc2)c1`, the TGI in the experiment on RXF 393 renal was 61.5 µM; in the experiment with M14 melanoma it was greater than 100 µM; in the experiment with KM12 colon it was 22.7 µM; with MOLT-4 leukemia it was greater than 100 µM; with SF-268 CNS, greater than 100 µM; in the experiment on RPMI-8226 leukemia, greater than 100 µM. Also, the TGI in the experiment with K-562 leukemia, in the experiment with HOP-62 NSCLC, in the experiment with SK-MEL-5 melanoma, in the experiment with HCT-15 colon, in the experiment on SK-MEL-28 melanoma and in the experiment with CCRF-CEM leukemia was greater than 100 µM each time. For the same compound, the TGI is greater than 100 µM in the experiment on SF-295 CNS, greater than 100 µM in the experiment on A498 renal, greater than 100 µM in the experiment with HCT-116 colon and 78.7 µM in the experiment with SNB-75 CNS.

Turning to `O=C(COc1ccc(Cl)c(Cl)c1)Nc1ccc[n+](Cc2ccc(S(=O)(=O)F)c(Cl)c2)c1`, the TGI in the experiment with RXF 393 renal was greater than 100 µM; in the experiment on M14 melanoma, greater than 100 µM; in the experiment with KM12 colon it was greater than 100 µM; with MOLT-4 leukemia, greater than 100 µM; in the experiment on SF-268 CNS it was greater than 100 µM; with RPMI-8226 leukemia it was 65.4 µM. In addition, the TGI in the experiment with K-562 leukemia, in the experiment with DU-145 prostate, in the experiment on HOP-62 NSCLC, with SK-MEL-5 melanoma, with HCT-15 colon and in the experiment on SK-MEL-28 melanoma was greater than 100 µM in each case. Besides, the TGI in the experiment on SF-295 CNS, in the experiment on A498 renal, in the experiment on NCI/ADR-RES ovarian, with HCT-116 colon, in the experiment with SK-MEL-2 melanoma and in the experiment with SNB-75 CNS was greater than 100 µM each time. The compound also gave a TGI in the experiment with CAKI-1 renal greater than 100 µM.

As for `Cc1ccc(O)c(Cc2nc3ccccc3nc2-c2cccc(Cl)c2)c1`, the TGI is greater than 100 µM in the experiment on RXF 393 renal; greater than 100 µM in the experiment with M14 melanoma; greater than 100 µM in the experiment with KM12 colon; 51.4 µM in the experiment with MOLT-4 leukemia; greater than 100 µM with SF-268 CNS; 79.4 µM with RPMI-8226 leukemia. The TGI in the experiment on K-562 leukemia is greater than 100 µM; with DU-145 prostate, greater than 100 µM; in the experiment with HOP-62 NSCLC it was greater than 100 µM; in the experiment on SK-MEL-5 melanoma, greater than 100 µM; in the experiment with HCT-15 colon, 46.1 µM; with SF-295 CNS, greater than 100 µM. Besides, the TGI with NCI/ADR-RES ovarian, in the experiment on HCT-116 colon, in the experiment with SK-MEL-2 melanoma and in the experiment with CAKI-1 renal was greater than 100 µM in each case.

Regarding `CCCCN1C(=O)C2Cc3c([nH]c4ccccc34)C(c3cccc(O)c3)N2C1=O` (stereo not drawn), the TGI in the experiment on M14 melanoma was found to be 34.4 µM; with KM12 colon, 36.2 µM; in the experiment with MOLT-4 leukemia, 69.6 µM; in the experiment with SF-268 CNS it was 34.7 µM; in the experiment on RPMI-8226 leukemia, 51.2 µM; with K-562 leukemia, 47.5 µM. Further, the TGI with DU-145 prostate was found to be 33.1 µM; with HOP-62 NSCLC, 33.1 µM; in the experiment on SK-MEL-5 melanoma, 31.1 µM; with HCT-15 colon, 37.2 µM; in the experiment with SK-MEL-28 melanoma, 34.3 µM; with CCRF-CEM leukemia, 36.2 µM. The TGI turned out to be 31.9 µM in the experiment on SF-295 CNS; 32.8 µM with A498 renal; 36.2 µM with NCI/ADR-RES ovarian; 34.9 µM in the experiment with HCT-116 colon; 32.9 µM in the experiment with SK-MEL-2 melanoma; 32.7 µM in the experiment on SNB-75 CNS. The compound further came in with a TGI in the experiment on CAKI-1 renal of 33.9 µM.

As for `O=C(CSCC(=O)N/N=C/c1ccc2c(c1)OCO2)N/N=C/c1ccc2c(c1)OCO2`, the TGI in the experiment with RXF 393 renal is greater than 100 µM; with M14 melanoma, greater than 100 µM; in the experiment on KM12 colon it was greater than 100 µM; in the experiment with MOLT-4 leukemia, 56.8 µM; in the experiment on SF-268 CNS, greater than 100 µM; with RPMI-8226 leukemia it was greater than 100 µM. Further, the TGI in the experiment with K-562 leukemia, in the experiment with DU-145 prostate, in the experiment on HOP-62 NSCLC, in the experiment on SK-MEL-5 melanoma, with HCT-15 colon and in the experiment with SK-MEL-28 melanoma was greater than 100 µM throughout. The TGI in the experiment on CCRF-CEM leukemia, with SF-295 CNS, in the experiment with A498 renal, in the experiment with NCI/ADR-RES ovarian, in the experiment with HCT-116 colon and in the experiment on SK-MEL-2 melanoma was greater than 100 µM in each case. Further, the TGI with SNB-75 CNS and in the experiment on CAKI-1 renal was greater than 100 µM each time.

As for `C[C@H]1C[C@@H]2[C@H]([C@@H](O)C[C@@]3(C)[C@H]2CC[C@]3(O)C(=O)CO)[C@@]2(C)C=CC(=O)C=C12`, the TGI with M14 melanoma, with KM12 colon, with MOLT-4 leukemia, with RPMI-8226 leukemia, in the experiment on K-562 leukemia and in the experiment with HOP-62 NSCLC was greater than 100 µM throughout. Moreover, the TGI in the experiment on SK-MEL-5 melanoma, with HCT-15 colon, in the experiment with SK-MEL-28 melanoma, in the experiment with CCRF-CEM leukemia, in the experiment on A498 renal and with HCT-116 colon was greater than 100 µM throughout. Further, the TGI in the experiment on SK-MEL-2 melanoma and with CAKI-1 renal was greater than 100 µM throughout.
